From ChEMBL document CHEMBL1201862, “PubChem BioAssay data set” (2004)
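Cells were grown in 96-well plates and exposed to each compound for 48 hours at five concentrations; endpoints were interpolated linearly between bracketing concentrations, or set to the highest concentration if not reached. GI50: concentration for 50% inhibition of growth.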 Active and inactive are the calls of the source. Rule as the data show it: active = GI50 up to about 1.1 µM and inactive = higher.

Key:
Experiment in all cases: NCI tumour cell line growth inhibition, 48 h
DLD-1 = tested on: DLD-1
DMS-114 = tested on: DMS-114
KM-20L2 = tested on: KM-20L2
M19-MEL = tested on: M19-MEL
RXF 631 = tested on: RXF 631
SNB-78 = tested on: SNB-78
HOP-18 = tested on: HOP-18
LXFL 529 = tested on: LXFL 529
XF498 = tested on: XF498

Measured: GI50

CCCC(Sc1ccccc1)P(=O)(c1ccccc1)c1ccccc1 (configuration not stated)
inactive: DLD-1 19.6 µM | DMS-114 34.8 µM | KM-20L2 > 100 µM | M19-MEL 34.6 µM | RXF 631 30.1 µM | SNB-78 37.6 µM

COC(=O)c1nc(C(=O)OC)c2c([nH]c3ccccc32)c1C(=O)OC
active: HOP-18 < 0.01 µM
inactive: DLD-1 65.6 µM | DMS-114 49.3 µM | LXFL 529 74.5 µM | SNB-78 > 100 µM | XF498 35.2 µM

Cn1c2cc(O)cc(O)c2c(=O)c2c([N+](=O)[O-])cccc21
inactive: DLD-1 > 100 µM | DMS-114 > 100 µM | HOP-18 > 100 µM | KM-20L2 > 100 µM | LXFL 529 > 100 µM | RXF 631 > 100 µM | SNB-78 > 100 µM

[O-][S+]1Cc2ccccc2CS1 (configuration not stated)
inactive: DLD-1 16.7 µM | HOP-18 33 µM | KM-20L2 25.3 µM | LXFL 529 15.1 µM | M19-MEL 17 µM | RXF 631 48.9 µM | SNB-78 14.7 µM | XF498 17.9 µM

CC(=O)C1=C(C)NC2C=CC=CN12 (configuration not stated)
inactive: DLD-1 > 100 µM | DMS-114 > 100 µM | HOP-18 > 100 µM | KM-20L2 > 100 µM | M19-MEL > 100 µM | SNB-78 > 100 µM | XF498 > 100 µM

COc1ccc2[nH]c3c(c2c1)[C@H](C)C[C@@H]1C(=O)N(c2ccccc2)C(=O)[C@H]31
inactive: DLD-1 43.3 µM | DMS-114 33.8 µM | HOP-18 20.9 µM | KM-20L2 62.8 µM | LXFL 529 29.6 µM | M19-MEL 36.7 µM | RXF 631 20.5 µM | XF498 24.5 µM

CC(C)CS(=O)(=O)/C(=C(\c1ccc(Br)cc1)S(=O)(=O)CC(C)C)c1ccc(Br)cc1
inactive: DLD-1 > 100 µM | HOP-18 > 100 µM | KM-20L2 > 100 µM | LXFL 529 > 100 µM | M19-MEL > 100 µM | RXF 631 > 100 µM | SNB-78 97.7 µM | XF498 > 100 µM

CS(=O)(=O)c1c(N)c2nc(Cl)cn2c2nc3ccccc3nc12
inactive: DLD-1 > 100 µM | DMS-114 > 100 µM | KM-20L2 > 100 µM | LXFL 529 > 100 µM | M19-MEL > 100 µM | RXF 631 > 100 µM | SNB-78 > 100 µM | XF498 > 100 µM

COc1cc2c(cc1OC)C(C(CBr)CBr)N(C1CCCC1)CC2 (configuration not stated)
inactive: DLD-1 > 100 µM | KM-20L2 1.46 µM | LXFL 529 > 100 µM | M19-MEL > 100 µM | SNB-78 > 10 µM | XF498 > 100 µM

CCOC(=O)/C(I)=C/c1cc(OC)c(OC)c(OC)c1
inactive: DLD-1 6.03 µM | DMS-114 2.92 µM | HOP-18 11.6 µM | KM-20L2 3.21 µM | LXFL 529 10.4 µM | M19-MEL 4.12 µM | SNB-78 28.2 µM | XF498 2.92 µM

Cc1ccc(C)c(NC(=O)CC/C(=N\NC(=O)C(=O)NN)C(C)C(=O)c2ccc(O)cc2)c1 (configuration not stated)
inactive: DLD-1 > 100 µM | HOP-18 > 100 µM | KM-20L2 > 100 µM | LXFL 529 > 100 µM | M19-MEL > 100 µM | SNB-78 > 100 µM

CC(=O)Nc1ccc(S(=O)(=O)Nc2cnc3ccccc3n2)cc1
inactive: DLD-1 > 100 µM | DMS-114 > 100 µM | HOP-18 > 100 µM | KM-20L2 > 100 µM | LXFL 529 > 100 µM | M19-MEL > 100 µM | XF498 > 100 µM

CCCCCC(/C=C/[C@@H]1[C@H]2CC(=O)O[C@H]2C[C@H]1N1CCOCC1)OC1CCCO1 (some centres not stated)
inactive: DLD-1 > 100 µM | DMS-114 > 100 µM | HOP-18 > 100 µM | KM-20L2 > 100 µM | LXFL 529 > 100 µM | M19-MEL > 100 µM | SNB-78 > 100 µM

O=C(C#Cc1cnc(O)nc1O)c1ccccc1
inactive: DLD-1 11.3 µM | DMS-114 15.1 µM | HOP-18 15.7 µM | M19-MEL 9.48 µM | RXF 631 14 µM | SNB-78 10.4 µM

COc1ccc(/C=C2\CCC(CCN(C)C)(C3=CCCC3)C2=O)cc1Br (configuration not stated)
inactive: DLD-1 5.13 µM | DMS-114 4.32 µM | HOP-18 12.4 µM | KM-20L2 1.59 µM | LXFL 529 4.71 µM | M19-MEL 2.93 µM | RXF 631 14.7 µM | SNB-78 9.02 µM | XF498 3.24 µM
